The structures appear in SMILES notation. pEC50: −log10 of the molar value. Bounds are passed on as bounds.

As a reminder, the pEC50 is −log10 of the EC50, conventionally taken in molar units. As usually defined, the CC50 is the concentration giving 50% cytotoxicity.

Series [1] has as its system HBV. As to the kind of experiment: Anti-HBV activity, HepG2.2.15 stable transfected cell line, HBV DNA from secreted virions by realtime PCR. Particulars: Hepatitis B virus, HepG2.2.15, 144 h, HepG2.2.15 cells, 6 days of treatment, HBV DNA from secreted virions; read-out: HepG2 2.15 EC50. In kind it is cell-based.
Series [2] deals with HBV. The experiment in a line: Anti-HBV activity, HepG2.117 inducibly HBV producing cell line (Tet-off), intracellular HBV DNA by realtime PCR. In kind it is cell-based. To be noted: Hepatitis B virus, HepG2.117, 72 h, HepG2.117 cells, 3 days of treatment, intracellular HBV DNA; read-out: HepG2 117 EC50.
The nature of series [3]: Cytotoxicity in HepG2 cells, Resazurin viability assay. To be noted: human, HepG2 cells, HepG2 4 days CC50 (μM), incubated for 4 days, Resazurin assay. (Alamar Blue is a resazurin reagent that responds to reducing activity.)

Take `Cc1c(S(=O)(=O)N[C@H](C)C(F)(F)F)cc(C(=O)Nc2ccc(F)c(Cl)c2F)n1C` [Compound 143, N-(3-Chloro-2,4-difluorophenyl)-1,5-dimethyl-4-{[(1R)-2,2,2-trifluoro-1-methylethyl]sulfamoyl}-1H-pyrrole-2-carboxamide]: the pEC50 in series [1] was 7.30; in series [2], 6.82. Besides, in series [3], the CC50 at 4 days was more than 25 µM.
The corresponding values for `Cn1cc(S(=O)(=O)NC2(C(F)(F)F)CCOCC2)cc1C(=O)Nc1ccc(F)c(Cl)c1F` [Compound 258, N-(3-chloro-2,4-difluoro-phenyl)-1-methyl-4-[[1-(trifluoromethyl)-tetrahydropyran-4-yl]sulfamoyl]-1H-pyrrole-2-carboxamide] are 7.52, 7.70 and more than 25 µM.
The corresponding values for `Cn1cc(S(=O)(=O)NC(C)(C)C)c(F)c1C(=O)Nc1ccc(F)c(Cl)c1F` [Compound 212, 4-(tert-Butylsulfamoyl)-N-(3-chloro-2,4-difluorophenyl)-3-fluoro-1-methyl-1H-pyrrole-2-carboxamide] are 7.05, 7.40 and more than 25 µM.
The corresponding values for `Cn1cc(S(=O)(=O)NC2(C)COC2)cc1C(=O)Nc1cc(Cl)c(F)c(Cl)c1` [Compound 75, N-(3,5-Dichloro-4-fluorophenyl)-1-methyl-4-[(3-methyloxetan-3-yl)sulfamoyl]-1H-pyrrole-2-carboxamide] are 6.74, 6.74 and more than 25 µM.
`C[C@@H](NS(=O)(=O)c1cc(C(=O)Nc2cccc(C#N)c2F)n(C)c1)C(F)(F)F` [Compound 160, N-(3-Cyano-2-fluorophenyl)-1-methyl-4-{[(1R)-2,2,2-trifluoro-1-methylethyl]sulfamoyl}-1H-pyrrole-2-carboxamide]: the pEC50 was 6.80 in series [1] and 6.89 in series [2]. This compound came in with a CC50 at 4 days in series [3] of more than 25 µM.
`C[C@H](NS(=O)(=O)c1cc(C(=O)Nc2ccc(F)c(Cl)c2)n(C)c1)C(F)(F)F` [Compound 105, N-(3-Chloro-4-fluorophenyl)-1-methyl-4-{[(1S)-2,2,2-trifluoro-1-methylethyl]sulfamoyl}-1H-pyrrole-2-carboxamide]: the pEC50 in series [1] is 7.52; in series [2], 7.70. The same compound returned a CC50 at 4 days in series [3] of more than 25 µM.
In the case of `CC(C)NS(=O)(=O)c1cn(C)c(C(=O)Nc2ccc(F)c(C#N)c2)c1Cl` [Compound 269, 3-Chloro-N-(3-cyano-4-fluorophenyl)-1-methyl-4-[(1-methylethyl)sulfamoyl]-1H-pyrrole-2-carboxamide], the pEC50 is 7.30 in series [1] and 7.15 in series [2]. Also, the CC50 at 4 days in series [3] is more than 25 µM.
Turning to `CC(C)NS(=O)(=O)c1cc(C(=O)Nc2ccc(F)c(C#N)c2F)n(C)c1` [Compound 178, N-(3-Cyano-2,4-difluorophenyl)-1-methyl-4-[(1-methylethyl)sulfamoyl]-1H-pyrrole-2-carboxamide], the pEC50 in series [1] was 7.40; in series [2], 7.05. Further, the CC50 at 4 days in series [3] was more than 25 µM.
In the same order, the values of `Cn1cc(S(=O)(=O)NC2(C)CC2)cc1C(=O)Nc1ccc(F)c(Cl)c1F` [Compound 255, N-(3-chloro-2,4-difluoro-phenyl)-1-methyl-4-[(1-methylcyclopropyl)-sulfamoyl]-1H-pyrrole-2-carboxamide] are 7.05, 7.00 and more than 25 µM.
In the case of `Cn1cc(S(=O)(=O)NC2(C)COC2)cc1C(=O)Nc1ccc(F)c(C(F)(F)F)c1` [Compound 43, N-[4-fluoro-3-(trifluoromethyl)phenyl]-1-methyl-4-[(3-methyloxetan-3-yl)-sulfamoyl]pyrrole-2-carboxamide], the figures for the pEC50 in series [1] and in series [2] were 6.96 and 6.89, respectively. The same compound came in with a CC50 at 4 days in series [3] of more than 25 µM.
Consider `Cc1cc(NC(=O)c2cc(S(=O)(=O)N[C@H]3C[C@@H](O)C3)cn2C)ccc1F` [Compound 15, N-(4-fluoro-3-methyl-phenyl)-4-[(3-hydroxycyclobutyl)sulfamoyl]-1-methyl-pyrrole-2-carboxamide], for which the pEC50 in series [1] was 6.80; in series [2], 6.89. Further, the CC50 at 4 days in series [3] was more than 25 µM.
In the same order, the values of `Cc1cc(NC(=O)c2cc(S(=O)(=O)NC3(C)COC3)cn2C)cc(C)c1F` [Compound 80, N-(4-Fluoro-3,5-dimethylphenyl)-1-methyl-4-[(3-methyloxetan-3-yl)sulfamoyl]-1H-pyrrole-2-carboxamide] are 7.40, 7.05 and more than 25 µM.
On to `Cn1cc(S(=O)(=O)N[C@H]2CCOC2)cc1C(=O)Nc1ccc(F)c(F)c1` [Compound 21, N-(3,4-difluorophenyl)-1-methyl-4-[[(3S)-tetrahydrofuran-3-yl]-sulfamoyl]pyrrole-2-carboxamide], for which the pEC50 in series [1] was 6.66; in series [2], 6.08. Moreover, the CC50 at 4 days in series [3] is more than 25 µM.
Take `Cc1c(S(=O)(=O)NC2(C)COC2)cn(C)c1C(=O)Nc1ccc(F)c(F)c1` [Compound 148, N-(3,4-Difluorophenyl)-1,3-dimethyl-4-[(3-methyloxetan-3-yl)sulfamoyl]-1H-pyrrole-2-carboxamide]: the pEC50 was 6.96 in series [1] and 7.15 in series [2]. In series [3], this compound yielded a CC50 at 4 days of more than 25 µM.
Consider `Cn1cc(S(=O)(=O)NC2(C)COC2)c(F)c1C(=O)Nc1cc(F)c(F)cc1F` [Compound 109, 3-Fluoro-1-methyl-4-[(3-methyloxetan-3-yl)sulfamoyl]-N-(2,4,5-trifluorophenyl)-1H-pyrrole-2-carboxamide], for which the pEC50 was 6.62 in series [1] and 7.00 in series [2]. This compound also returned a CC50 at 4 days in series [3] of more than 25 µM.
In the case of `Cc1c(F)ccc(NC(=O)c2cc(S(=O)(=O)NC(C)(C)C)cn2C)c1F` [Compound 112, 4-(tert-butylsulfamoyl)-N-(2,4-difluoro-3-methyl-phenyl)-1-methyl-pyrrole-2-carboxamide], the pEC50 in series [1] was 7.22; in series [2], 7.05. The compound further yielded a CC50 at 4 days in series [3] of more than 25 µM.
For `Cn1cc(S(=O)(=O)NC(C)(C)C)cc1C(=O)Nc1ccc(F)c(Cl)c1F` [Compound 194, 4-(tert-Butylsulfamoyl)-N-(3-chloro-2,4-difluorophenyl)-1-methyl-1H-pyrrole-2-carboxamide], the pEC50 is 7.05 in series [1] and 7.30 in series [2]. In series [3], this compound showed a CC50 at 4 days of more than 25 µM.
For `C[C@H](NS(=O)(=O)c1cn(C)c(C(=O)Nc2ccc(F)c(C#N)c2)c1Cl)C(F)(F)F` [Compound 225, 3-Chloro-N-(3-cyano-4-fluorophenyl)-1-methyl-4-{[(1S)-2,2,2-trifluoro-1-methylethyl]sulfamoyl}-1H-pyrrole-2-carboxamide], the pEC50 in series [1] and in series [2] was 7.15 in each case. Further, in series [3], the CC50 at 4 days is more than 25 µM.
On to `Cc1c(S(=O)(=O)N[C@H](C)C(F)(F)F)cn(C)c1C(=O)Nc1ccc(F)c(C(F)(F)F)c1` [Compound 153, N-[4-Fluoro-3-(trifluoromethyl)phenyl]-1,3-dimethyl-4-{[(1R)-2,2,2-trifluoro-1-methylethyl]sulfamoyl}-1H-pyrrole-2-carboxamide], for which the results for the pEC50 in series [1] and in series [2] were 6.57 and 6.82, respectively. For the same compound, the CC50 at 4 days in series [3] is more than 25 µM.
`Cc1c(F)ccc(NC(=O)c2c(F)c(S(=O)(=O)NC3(C)COC3)cn2C)c1F` [Compound 110, N-(2,4-Difluoro-3-methylphenyl)-3-fluoro-1-methyl-4-[(3-methyloxetan-3-yl)sulfamoyl]-1H-pyrrole-2-carboxamide]: the pEC50 in series [1] was 7.70; in series [2], 7.52. In series [3], this compound returned a CC50 at 4 days of more than 25 µM.
Consider `Cc1cc(NC(=O)c2cc(S(=O)(=O)NC3(CC#N)COC3)cn2C)ccc1F` [Compound 17, 4-[[3-(cyanomethyl)oxetan-3-yl]sulfamoyl]-N-(4-fluoro-3-methyl-phenyl)-1-methyl-pyrrole-2-carboxamide], for which the results for the pEC50 in series [1] and in series [2] were 7.52 and 7.70, respectively. In series [3], this compound had a CC50 at 4 days of more than 25 µM.
Regarding `Cn1cc(S(=O)(=O)NC2(C)CC(F)(F)C2)c(F)c1C(=O)Nc1ccc(F)c(C#N)c1` [Compound 187, N-(3-Cyano-4-fluorophenyl)-4-[(3,3-difluoro-1-methylcyclobutyl)sulfamoyl]-3-fluoro-1-methyl-1H-pyrrole-2-carboxamide], the values for the pEC50 in series [1] and in series [2] were 8.10 and 8.22, respectively. Moreover, in series [3], the CC50 at 4 days was more than 25 µM.
Regarding `C[C@@H](NS(=O)(=O)c1c(Cl)c(C(=O)Nc2ccc(F)c(C#N)c2)n(C)c1Br)C(F)(F)F` [Compound 300, 5-bromo-3-chloro-N-(3-cyano-4-fluoro-phenyl)-1-methyl-4-[[(1R)-2,2,2-trifluoro-1-methyl-ethyl]sulfamoyl]pyrrole-2-carboxamide], in series [2], the pEC50 was 8.10. This compound registered a CC50 at 4 days in series [3] of 14.2 µM.
In the case of `Cn1cc(S(=O)(=O)NC2CCCC2)c(Cl)c1C(=O)Nc1ccc(F)c(C#N)c1` [Compound 307, 3-chloro-N-(3-cyano-4-fluoro-phenyl)-4-(cyclopentylsulfamoyl)-1-methyl-pyrrole-2-carboxamide], in series [2], the pEC50 was 7.52. Besides, the CC50 at 4 days in series [3] was more than 25 µM.
`CC(C)c1c(S(=O)(=O)N[C@H](C)C(F)(F)F)cn(C)c1C(=O)Nc1ccc(F)c(C#N)c1` [Compound 303, N-(3-cyano-4-fluoro-phenyl)-3-isopropyl-1-methyl-4-[[(1R)-2,2,2-trifluoro-1-methyl-ethyl]sulfamoyl]pyrrole-2-carboxamide]: the negative-log EC50 (pEC50) in series [2] was less than 4.90. The same compound came in with a CC50 at 4 days in series [3] of more than 25 µM.
With `C[C@@H](NS(=O)(=O)c1cn(C)c(C(=O)Nc2ccc(F)cc2F)c1F)C(F)(F)F` [Compound 312, N-(2,4-difluorophenyl)-3-fluoro-1-methyl-4-[[(1R)-2,2,2-trifluoro-1-methyl-ethyl]sulfamoyl]pyrrole-2-carboxamide], the pEC50 in series [2] is 7.22. Also, the CC50 at 4 days in series [3] is more than 25 µM.

These data come from patent US9884818B2, “Sulphamoylpyrrolamide derivatives and the use thereof as medicaments for the treatment of hepatitis B” (Janssen Sciences Ireland UC, priority 2013, dated 2018).
